Test results from US12590103B2, “Polymorph of EP4 receptor antagonist, preparation method therefor and use thereof” (SHANGHAI YUYAO BIOTECH LTD., priority 2020, dated 2026).

How the values were obtained:
Assay type in all cases: physicochemical
[1] = Dynamic water vapor adsorption (DVS)
Procedure: The instrument model used for dynamic moisture absorption and desorption analysis is IGA Sorp(Hidentity Isochema). The sample measurement adopts gradient mode, the relative humidity range of the test is 0% to 90%, and the humidity increment of each gradient is 10%. The specific parameters are as follows: • Sample temperature: 25° C. • Temperature stability: 0.1° C./min • Flow rate: 250 mL/min • Scan: 2 • Model: F1 • Minimum time: 30 min • Maximum time: 120 min • Waiting cap: 98% • Start: Adsorption Scan • Adsorption humidity (%):0, 10, 20, 30, 40, 50, 60, 70, 80, 90; • Desorption humidity (%):80, 70, 60, 50, 40, 30, 20, 10, 0.
The initial raw material of Compound I was slurried in acetone for 4 hours, filtered and the resulting solid was characterized by XRPD, PLM, TGA, DSC and DVS.

[2] = Stability determination at 25° C./92.5% RH (XRPD); settings: 25° C./92.5% RH for 9 days
Procedure: (§1) The solid samples obtained from the experiment were analyzed by D8 advance powder X-ray diffraction analyzer (Bruker). The instrument is equipped with a LynxEye detector, and the ray species is Cu Kα (λ=1.54184 Å). The 2θ scanning range of the sample is from 3° to 40°, and the scanning step is 0.02°. When measuring the sample, the light tube voltage and light tube current were 40 KV and 40 mA respectively.

[3] = Suspension crystal transformation experiment of Polymorphic Form I and Polymorphic Form II; settings: concluded from suspension crystal transformation at RT and 50° C.
Procedure: Suspension crystal transformation experiments were carried out on Polymorph I and polymorph II at room temperature and 50° C. respectively (Table 13). The resulting solid was characterized by XRPD.

[4] = DSC heat treatment (heating-cooling-heating cycle) with XRPD; settings: RT to 260° C., to −30° C., to 300° C.
Procedure: The DSC heating-cooling-heating cycle was used to try to find a crystal form with a higher melting point.
During the cooling process, there is an obvious exothermic peak. The initial temperature of the exothermic peak is 206.8° C., which should be caused by crystal transformation. XRPD characterization was performed on three different positions during DSC treatment.

[5] = Volatilization at room temperature, sample checked by 1H NMR; settings: volatilized at room temperature in THF, MeOH-THF and THF-water
Procedure: The structure of the solid sample and the solvent contained in the sample were confirmed by ^1H NMR. The instrument used for ^1H NMR analysis is Bruker Advance 300 equipped with B-ACS 120 automatic sampling system.
Single solvent volatilization: an appropriate amount of initial raw materials of compound I was dissolved in the solvents shown in 1-6 in Table 8 to prepare a solution with a concentration of 8 to 20 mg/mL. The obtained solution was filtered, the filtrate was volatilized at room temperature, and the obtained solid was characterized by XRPD.
Binary solvent volatilization: an appropriate amount of initial raw materials of compound I was dissolved in the solvents shown in 7-25 of Table 8 to prepare a solution with a concentration of 10 mg/mL. After filtration, the resulting filtrate was then mixed with solvent −2; then volatilized at room temperature. A total of 19 solvent systems were used to carry out the volatilization experiment of binary solvent, and the obtained solid was characterized by XRPD.

[6] = XRPD characterization after heating (thermal crystal transformation)
Procedure: as §1

C[C@H](NC(=O)c1c(Cc2ccc(F)cc2)sc2c1CCOC2)c1ccc(C(=O)O)cc1 [polymorphic Form I, (S)-4-(1-(2-(4-fluorobenzyl)-4,7-dihydro-5H-thieno [2,3-c]pyran-3-carboxamido)ethyl) benzoic acid]
polymorph of the sample before and after moisture absorption ([1]; DVS 0% to 90% RH): does not change
moisture absorbed (DVS) ([1]; at 80% RH, 25° C.): < 2%
crystal form by XRPD after storage in high humidity [2]: remain unchanged
thermodynamic stability of the crystal form [3]: thermodynamically stable crystal form
crystal form by XRPD at positions 1, 2 and 3 of the DSC treatment [4]: all polymorphic Form I

C[C@H](NC(=O)c1c(Cc2ccc(F)cc2)sc2c1CCOC2)c1ccc(C(=O)O)cc1 [compound I, (S)-4-(1-(2-(4-fluorobenzyl)-4,7-dihydro-5H-thieno [2,3-c]pyran-3-carboxamido)ethyl) benzoic acid]
chemical stability of the sample (1H NMR) [5]: degraded

C[C@H](NC(=O)c1c(Cc2ccc(F)cc2)sc2c1CCOC2)c1ccc(C(=O)O)cc1 [polymorphic Form III, (S)-4-(1-(2-(4-fluorobenzyl)-4,7-dihydro-5H-thieno [2,3-c]pyran-3-carboxamido)ethyl) benzoic acid]
crystal form by XRPD after heating ([6]; heated to 240° C.): transformed into polymorphic Form I

C[C@H](NC(=O)c1c(Cc2ccc(F)cc2)sc2c1CCOC2)c1ccc(C(=O)O)cc1 [polymorphic Form V, (S)-4-(1-(2-(4-fluorobenzyl)-4,7-dihydro-5H-thieno [2,3-c]pyran-3-carboxamido)ethyl) benzoic acid]
crystal form by XRPD after heating ([6]; heated to 200° C.): converted into the polymorphic Form I

C[C@H](NC(=O)c1c(Cc2ccc(F)cc2)sc2c1CCOC2)c1ccc(C(=O)O)cc1 [polymorphic Form IV, (S)-4-(1-(2-(4-fluorobenzyl)-4,7-dihydro-5H-thieno [2,3-c]pyran-3-carboxamido)ethyl) benzoic acid]
crystal form by XRPD after heating ([6]; heated to 200° C.): transformed into polymorphic Form I

C[C@H](NC(=O)c1c(Cc2ccc(F)cc2)sc2c1CCOC2)c1ccc(C(=O)O)cc1 [polymorphic Form II, (S)-4-(1-(2-(4-fluorobenzyl)-4,7-dihydro-5H-thieno [2,3-c]pyran-3-carboxamido)ethyl) benzoic acid]
crystal form by XRPD after heating ([6]; heated to 200° C.): transformed into polymorphic Form I

C[C@H](NC(=O)c1c(Cc2ccc(F)cc2)sc2c1CCOC2)c1ccc(C(=O)O)cc1 [polymorphic Form VI, (S)-4-(1-(2-(4-fluorobenzyl)-4,7-dihydro-5H-thieno [2,3-c]pyran-3-carboxamido)ethyl) benzoic acid]
crystal form by XRPD after heating ([6]; heated to about 236° C.): transformed into polymorphic Form I
